From patent US9211291B2, “Treatment regimen utilizing neratinib for breast cancer” (WYETH LLC, priority 2009, dated 2015)

Assays:
[1] = test system: metastatic erbB-2 positive breast cancer; assay: phase 2 trial of neratinib as a single agent in subjects with metastatic erbB-2 positive breast cancer; format: in vivo, human; details: for median progression-free survival (PFS) / overall response rate (ORR): independent radiology assessment, preliminary data
Excerpt: Neratinib as a single agent has been studied in a phase 2 trial in subjects with metastatic erbB-2 positive breast cancer.

[2] = test system: erbB-1- and/or erbB 2-expressing carcinoma cell lines; details: read-out: cellular IC50, preclinical data; cited from earlier work
[3] = Arm A: subjects with prior trastuzumab treatment
[4] = Arm B: subjects without prior exposure to trastuzumab

Structure (SMILES): CCOc1cc2ncc(C#N)c(Nc3ccc(OCc4ccccn4)c(Cl)c3)c2cc1NC(=O)/C=C/CN(C)C [neratinib, (2E)-N-[4-[[3-chloro-4-[(pyridin-2-yl)methoxy]phenyl]amino]-3-cyano-7-ethoxyquinolin-6-yl]-4-(dimethylamino)but-2-enamide]
- median progression-free survival (PFS) [1, 3]: 23 weeks
- overall response rate (ORR) [1, 3]: 26%
- median progression-free survival (PFS) [1, 4]: 40 weeks
- overall response rate (ORR) [1, 4]: 57%
- main adverse event ([1]; generally well manageable with medication, treatment interruption, or dose modification): diarrhea
- other common adverse events ([1]; human, in vivo): nausea, vomiting, fatigue, and anorexia
- IC50 [2]: < 0.1 µM
